Target: T1, Lp-PLA2 in human plasma (Homo sapiens, UniProt Q13093)
T1 construct: from tissue; host or cells: pooled human plasma
T1 sequence (Q13093 22-441): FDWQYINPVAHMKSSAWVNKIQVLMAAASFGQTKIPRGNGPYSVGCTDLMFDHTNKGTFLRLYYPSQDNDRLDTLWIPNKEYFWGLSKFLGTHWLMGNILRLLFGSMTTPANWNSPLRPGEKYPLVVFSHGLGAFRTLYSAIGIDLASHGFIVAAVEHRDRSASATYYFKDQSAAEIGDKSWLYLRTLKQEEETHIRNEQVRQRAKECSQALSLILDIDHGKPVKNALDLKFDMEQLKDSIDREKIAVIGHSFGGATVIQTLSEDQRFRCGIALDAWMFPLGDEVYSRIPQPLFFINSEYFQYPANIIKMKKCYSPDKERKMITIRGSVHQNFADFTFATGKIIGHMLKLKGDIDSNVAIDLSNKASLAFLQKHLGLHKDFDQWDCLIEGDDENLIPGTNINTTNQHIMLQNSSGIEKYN
Experiment: (3a) Lp-PLA2 human plasma Thio-PAF assay
Assay type: biochemical
Conditions: (3a) Thio-PAF assay, pooled human plasma; Examples 1-265 and 413-430 were tested here; read-out: pIC50 in the Lp-PLA2 human plasma assay (converted)
Source text: (3) Lipoprotein-Associated Phospholipase A2 (Lp-PLA2) Human Plasma Assay
The human plasma assay utilizes a thioester analog of PAF (phosphatidylcholine), where hydrolysis yields to the formation of a phospholipid containing a free thiol group. The amount of thiol is quantitated continuously by reacting with CPM (7-diethylamino-3-(4′-maleimidylphenyl)-4-methylcoumarin), a maleimide which increases in fluoresence after Michael addition of thiols. This assay may detect the activity of Lp-PLA2 in human plasma, as determined by specific inhibition by Lp-PLA2 inhibitors.
The thio-PAF assay was run as a quenched 15 μL assay. Compounds source plate was prepared by making 1:3 (by volume) serial dilution of the compounds into pure DMSO on 384-well microplate. 0.01 μL of compounds on compound source plate were transferred to 384 well Greiner 784076 (black) low-volume plates by ECHO liquid dispenser. 8 μL pooled human plasma, which was previously aliquoted and frozen, was added. Plates were centrifuged for 10 sec at 500 rpm. After 30 minutes preincubation, 2 μL of substrate solution comprising 2.5 mM 2-thio-PAF [from ethanol stock], 32 μM CPM [from a DMSO stock] and 3.2 mM NEM (N-ethylmaleimide) [made fresh daily in DMSO] in assay buffer of 50 mM HEPES, pH 7.4, 150 mM NaCl, 1 mM CHAPS was added to 384 well Greiner 784076 (black) low-volume plates by BRAVO liquid handling station. After 2 mins, reaction was quenched with 5 μL of 5% aqueous trifluoroacetic acid (TFA). Plates were covered to protect from light and incubated for 40 min at room temperature. Plates were read at ex: 380/em: 485 using Envision microplate reader. PIC50 data, curve and QC analysis were conducted by using XLFit module in Excel.

Structure (SMILES)	IC50 [µM]
Cn1cc(Oc2c(F)cc(COc3cc4n(c(=O)n3)CC3OCCN43)cc2F)cn1 (single isomer, unassigned) [Example E189, 6-((3,5-difluoro-4-((1-methyl-1H-pyrazol-4-yl)oxy)benzyl)oxy)-10,10a-dihydro-2H-oxazolo[3′,2′:3,4]imidazo[1,2-c]pyrimidin-8(3H)-one]	≤ 10
O=c1nc(OCc2cccc(F)c2F)cc2n1C[C@H]1COCN21 [Example E169, (S)-6-((2,3-difluorobenzyl)oxy)-10,10a-dihydro-1H-oxazolo[3′,4′:3,4]imidazo[1,2-c]pyrimidin-8(3H)-one]	≤ 10
O=c1nc(OCc2cccc(F)c2)cc2n1C[C@@H]1COCN21 [Example E171, (R)-6-((3-fluorobenzyl)oxy)-10,10a-dihydro-1H-oxazolo[3′,4′:3,4]imidazo[1,2-c]pyrimidin-8(3H)-one]	≤ 10
O=c1nc(OCc2cccc(F)c2F)cc2n1C[C@@H]1COCN21 [Example E172, (R)-6-((2,3-difluorobenzyl)oxy)-10,10a-dihydro-1H-oxazolo[3′,4′:3,4]imidazo[1,2-c] pyrimidin-8(3H)-one]	≤ 10
O=c1nc(OCc2cc(F)c(F)cc2F)cc2n1C[C@H]1COCN21 [Example E173, (S)-6-((2,4,5-trifluorobenzyl)oxy)-10,10a-dihydro-1H-oxazolo[3′,4′:3,4]imidazo[1,2-c] pyrimidin-8(3H)-one]	≤ 10
O=c1nc(OCc2cc(F)c(F)cc2F)cc2n1C[C@@H]1COCN21 [Example E175, (R)-6-((2,4,5-trifluorobenzyl)oxy)-10,10a-dihydro-1H-oxazolo[3′,4′:3,4]imidazo[1,2-c] pyrimidin-8(3H)-one]	≤ 10
O=c1nc(OCc2cc(F)cc(F)c2)cc2n1C[C@@H]1COCN21 [Example E176, (R)-6-((3,5-difluorobenzyl)oxy)-10,10a-dihydro-1H-oxazolo[3′,4′:3,4]imidazo[1,2-c] pyrimidin-8(3H)-one]	≤ 10

The next lines start with the values.

IC50 [µM]	Structure (SMILES)
≤ 10	O=c1nc(OCc2ccc(F)cc2F)cc2n1C[C@H]1COCN21 [Example E168, (S)-6-((2,4-difluorobenzyl)oxy)-10,10a-dihydro-1H-oxazolo[3′,4′:3,4]imidazo[1,2-c] pyrimidin-8(3H)-one]
≤ 10	O=c1nc(OCc2ccc(F)cc2F)cc2n1C[C@@H]1COCN21 [Example E174, (R)-6-((2,4-difluorobenzyl)oxy)-10,10a-dihydro-1H-oxazolo[3′,4′:3,4]imidazo[1,2-c]pyrimidin-8(3H)-one]
≤ 10	O=c1nc(OCc2ccc(F)cc2F)cc2n1C[C@H]1CCOCN21 [Example E177, (R)-3-((2,4-difluorobenzyl)oxy)-8,9,9a,10-tetrahydropyrimido[6′,1′:2,3]imidazo[1,5-c][1,3] oxazin-1(6H)-one]
≤ 10	O=c1nc(OCc2ccc(F)cc2F)cc2n1C[C@@H]1CCOCN21 [Example E180, (S)-3-((2,4-difluorobenzyl)oxy)-8,9,9a,10-tetrahydropyrimido[6′,1′:2,3]imidazo[1,5-c][1,3]oxazin-1(6H)-one]
≤ 10	O=c1nc(OCc2cc(F)c(F)cc2F)cc2n1C[C@@H]1CCOCN21 [Example E181, (S)-3-((2,4,5-trifluorobenzyl)oxy)-8,9,9a,10-tetrahydropyrimido[6′,1′:2,3]imidazo[1,5-c][1,3]oxazin-1(6H)-one]
≤ 10	O=c1nc(OCc2cc(F)cc(F)c2)cc2n1C[C@@H]1CCOCN21 [Example E182, (S)-3-((3,5-difluorobenzyl)oxy)-8,9,9a,10-tetrahydropyrimido[6′,1′:2,3]imidazo[1,5-c][1,3] oxazin-1(6H)-one]
≤ 10	O=c1nc(OCc2cccc(F)c2F)cc2n1C[C@@H]1CCOCN21 [Example E183, (S)-3-((2,3-difluorobenzyl)oxy)-8,9,9a,10-tetrahydropyrimido[6′,1′:2,3]imidazo[1,5-c][1,3] oxazin-1(6H)-one]

— patent publication US11999746B2, “Compounds” (GlaxoSmithKline Intellectual Property Development Limited, priority 2014, dated 2024)
